From patent US6613718B2, “Aryl ether derivatives and processes for their preparation and herbicidal and desiccant compositions containing them” (Ishihara Sangyo Kaisha, Ltd., priority 2001, dated 2003)

What was measured:
[1] = system: upland rice (Oryza sp., var.Tebonnet, RICE); test: Pre-emerge greenhouse screening, crop safety (phytotoxicity rating); format: in vivo; settings: 14 days after application
Method in brief: (§1)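 Compounds in acetone track-sprayed at 15–1000 g ai/ha, 187 l/ha, onto sandy loam pots sown one day before (pre-emerge) or on 2-3 leaf plants (post-emerge, plus 0.25% v/v non-ionic surfactant). Phytotoxicity rated at 14 days, 0 (no damage) to 100 (all plants dead).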

[2] = system: field corn (Zea mays L., var. Dekalb 535, CORN); test: as above; format: in vivo; settings: 14 days after application
Method in brief: as §1

[3] = system: soybean (Glycine max L., var. Pella 86, SOY); test: as above; format: in vivo; settings: 14 days after application
Method in brief: as §1

[4] = system: field corn (Zea mays L., var. Dekalb 535, CORN); test: Post-emerge greenhouse screening, crop safety / corn selectivity (phytotoxicity rating); format: in vivo; settings: 14 days after application
Method in brief: as §1

[5] = as above; format: in vivo, Zea mays L.; settings: Zea mays (field corn), in vivo
Method in brief: as §1

[6] = system: velvetleaf (Abutilon theophrasti, ABUTH); test: Post-emerge greenhouse herbicide activity screening, phytotoxicity rating; format: in vivo; settings: 14 days after application
Method in brief: as §1

[7] = system: ivyleaf morningglory (Ipomoea hederacea, IPOHE); test: as above; format: in vivo; settings: 14 days after application
Method in brief: as §1

[8] = system: sicklepod (Cassia obtusifolia, CASOB); test: as above; format: in vivo
Method in brief: as §1

[9] = system: johnsongrass (Sorghum halepense, SORHA); test: as above; format: in vivo; settings: 14 days after application
Method in brief: as §1

[10] = system: redroot pigweed (Amaranthus retroflexus, AMARE); test: as above; format: in vivo
Method in brief: as §1

[11] = system: barnyardgrass (Echinochloa crus-galli, ECHCG); test: as above; format: in vivo; settings: 14 days after application
Method in brief: as §1

[12] = system: common ragweed (Ambrosia artemisiifolia L., AMBEL); test: as above; format: in vivo
Method in brief: as §1

[13] = system: large crabgrass (Digitaria sanguinalis, DIGSA); test: as above; format: in vivo; settings: 14 days after application
Method in brief: as §1

[14] = system: green foxtail (Setaria viridis, SETVI); test: as above; format: in vivo
Method in brief: as §1

[15] = system: lambsquarters (Chenopodium album, CHEAL); test: as above; format: in vivo
Method in brief: as §1

[16] = system: velvetleaf (Abutilon theophrasti, ABUTH); test: Pre-emerge greenhouse herbicide activity screening, phytotoxicity rating; format: in vivo; settings: 14 days after application
Method in brief: as §1

[17] = system: ivyleaf morningglory (Ipomoea hederacea, IPOHE); test: as above; format: in vivo; settings: 14 days after application
Method in brief: as §1

[18] = system: sicklepod (Cassia obtusifolia, CASOB); test: as above; format: in vivo; settings: 14 days after application
Method in brief: as §1

[19] = system: johnsongrass (Sorghum halepense, SORHA); test: as above; format: in vivo; settings: 14 days after application
Method in brief: as §1

[20] = system: redroot pigweed (Amaranthus retroflexus, AMARE); test: as above; format: in vivo; settings: 14 days after application
Method in brief: as §1

[21] = system: barnyardgrass (Echinochloa crus-galli, ECHCG); test: as above; format: in vivo; settings: 14 days after application
Method in brief: as §1

[22] = system: common ragweed (Ambrosia artemisiifolia L., AMBEL); test: as above; format: in vivo; settings: 14 days after application
Method in brief: as §1

[23] = system: large crabgrass (Digitaria sanguinalis, DIGSA); test: as above; format: in vivo; settings: 14 days after application
Method in brief: as §1

[24] = system: green foxtail (Setaria viridis, SETVI); test: as above; format: in vivo; settings: 14 days after application
Method in brief: as §1

[25] = system: lambsquarters (Chenopodium album, CHEAL); test: as above; format: in vivo; settings: 14 days after application
Method in brief: as §1

[26] = system: upland rice (Oryza sp., var.Tebonnet, RICE); test: Post-emerge greenhouse screening, crop safety (phytotoxicity rating); format: in vivo; settings: 14 days after application
Method in brief: as §1

[27] = system: soybean (Glycine max L., var. Pella 86, SOY); test: as above; format: in vivo; settings: 14 days after application
Method in brief: as §1

[28] = 125 g ai/ha, 14 days after application
[29] = 250 g ai/ha, 14 days after application

For Cn1c(C(F)(F)F)cc(=O)n(-c2cc(Oc3ncccn3)c(Cl)cc2F)c1=S [Compound 1-1, 3-[4-Chloro-2-fluoro-5-(2-pyrimidinyloxy)phenyl]-2,3-dihydro-1-methyl-2-thioxo-6-(trifluoromethyl)-4(1H)-pyrimidinone], the “RICE crop damage, phytotoxicity rating (0-100 scale)” value (shortened to “RICE crop damage”) ([1]; 125 g ai/ha) was 100, the “RICE crop damage” value ([1]; 250 g ai/ha) was 100 and the “CORN crop damage, phytotoxicity rating (0-100 scale)” value (shortened to “CORN crop damage”) ([2]; 125 g ai/ha) was 100. For the same compound, the “CORN crop damage” value ([2]; 250 g ai/ha) was 100, the “SOY crop damage, phytotoxicity rating (0-100 scale)” value (shortened to “SOY crop damage”) ([3]; 125 g ai/ha) was 100 and the “SOY crop damage” value ([3]; 250 g ai/ha) was 80. The “CORN crop damage” value ([4]; 125 g ai/ha) was 10, the “CORN crop damage” value ([4]; 250 g ai/ha) was 15 and the corn phytotoxicity rating (0-100 scale) at 14 days ([5]; 31.3 g ai/ha) was 8. For the same compound, the corn phytotoxicity rating (0-100 scale) at 14 days ([5]; 62.5 g ai/ha) was 8, the “ABUTH phytotoxicity rating (0-100 scale)” value ([6]; 125 g ai/ha) was 100 and the “ABUTH phytotoxicity rating (0-100 scale)” value ([6]; 250 g ai/ha) was 100. For the same compound, the “IPOHE phytotoxicity rating (0-100 scale)” value ([7]; 125 g ai/ha) was 100, the “IPOHE phytotoxicity rating (0-100 scale)” value ([7]; 250 g ai/ha) was 100 and the “CASOB phytotoxicity rating (0-100 scale)” value ([8]; 31.3 g ai/ha) was 95. For the same compound, the “CASOB phytotoxicity rating (0-100 scale)” value ([8]; 62.5 g ai/ha) was 99, the “CASOB phytotoxicity rating (0-100 scale)” value [8, 28] was 99 and the “CASOB phytotoxicity rating (0-100 scale)” value [8, 29] was 99. The “SORHA phytotoxicity rating (0-100 scale)” value ([9]; 125 g ai/ha) was 95, the “SORHA phytotoxicity rating (0-100 scale)” value ([9]; 250 g ai/ha) was 98 and the “AMARE phytotoxicity rating (0-100 scale)” value ([10]; 31.3 g ai/ha) was 100. The “AMARE phytotoxicity rating (0-100 scale)” value ([10]; 62.5 g ai/ha) was 100, the “AMARE phytotoxicity rating (0-100 scale)” value [10, 28] was 100 and the “AMARE phytotoxicity rating (0-100 scale)” value [10, 29] was 100. The “ECHCG phytotoxicity rating (0-100 scale)” value ([11]; 125 g ai/ha) was 100, the “ECHCG phytotoxicity rating (0-100 scale)” value ([11]; 250 g ai/ha) was 100 and the “AMBEL phytotoxicity rating (0-100 scale)” value ([12]; 31.3 g ai/ha) was 75. For the same compound, the “AMBEL phytotoxicity rating (0-100 scale)” value ([12]; 62.5 g ai/ha) was 98, the “AMBEL phytotoxicity rating (0-100 scale)” value [12, 28] was 99 and the “AMBEL phytotoxicity rating (0-100 scale)” value [12, 29] was 100. For the same compound, the “DIGSA phytotoxicity rating (0-100 scale)” value ([13]; 125 g ai/ha) was 95, the “DIGSA phytotoxicity rating (0-100 scale)” value ([13]; 250 g ai/ha) was 90 and the “SETVI phytotoxicity rating (0-100 scale)” value ([14]; 31.3 g ai/ha) was 85. For the same compound, the “SETVI phytotoxicity rating (0-100 scale)” value ([14]; 62.5 g ai/ha) was 99, the “SETVI phytotoxicity rating (0-100 scale)” value [14, 28] was 100 and the “SETVI phytotoxicity rating (0-100 scale)” value [14, 29] was 100. The “CHEAL phytotoxicity rating (0-100 scale)” value ([15]; 31.3 g ai/ha) was 100, the “CHEAL phytotoxicity rating (0-100 scale)” value ([15]; 62.5 g ai/ha) was 100 and the “CHEAL phytotoxicity rating (0-100 scale)” value [15, 28] was 100. The “CHEAL phytotoxicity rating (0-100 scale)” value [15, 29] was 100, the “ABUTH phytotoxicity rating (0-100 scale)” value ([16]; 125 g ai/ha) was 100 and the “ABUTH phytotoxicity rating (0-100 scale)” value ([16]; 250 g ai/ha) was 100. For the same compound, the “IPOHE phytotoxicity rating (0-100 scale)” value ([17]; 125 g ai/ha) was 100, the “IPOHE phytotoxicity rating (0-100 scale)” value ([17]; 250 g ai/ha) was 100 and the “CASOB phytotoxicity rating (0-100 scale)” value ([18]; 125 g ai/ha) was 100. The “CASOB phytotoxicity rating (0-100 scale)” value ([18]; 250 g ai/ha) was 100, the “SORHA phytotoxicity rating (0-100 scale)” value ([19]; 125 g ai/ha) was 100 and the “SORHA phytotoxicity rating (0-100 scale)” value ([19]; 250 g ai/ha) was 100. The “AMARE phytotoxicity rating (0-100 scale)” value ([20]; 125 g ai/ha) was 100, the “AMARE phytotoxicity rating (0-100 scale)” value ([20]; 250 g ai/ha) was 100 and the “ECHCG phytotoxicity rating (0-100 scale)” value ([21]; 125 g ai/ha) was 100. For the same compound, the “ECHCG phytotoxicity rating (0-100 scale)” value ([21]; 250 g ai/ha) was 100, the “AMBEL phytotoxicity rating (0-100 scale)” value ([22]; 125 g ai/ha) was 100 and the “AMBEL phytotoxicity rating (0-100 scale)” value ([22]; 250 g ai/ha) was 100. For the same compound, the “DIGSA phytotoxicity rating (0-100 scale)” value ([23]; 125 g ai/ha) was 100, the “DIGSA phytotoxicity rating (0-100 scale)” value ([23]; 250 g ai/ha) was 100 and the “SETVI phytotoxicity rating (0-100 scale)” value ([24]; 125 g ai/ha) was 100. The “SETVI phytotoxicity rating (0-100 scale)” value ([24]; 250 g ai/ha) was 100, the “CHEAL phytotoxicity rating (0-100 scale)” value ([25]; 125 g ai/ha) was 100 and the “CHEAL phytotoxicity rating (0-100 scale)” value ([25]; 250 g ai/ha) was 100. The “RICE crop damage” value ([26]; 125 g ai/ha) was 100, the “RICE crop damage” value ([26]; 250 g ai/ha) was 100 and the “SOY crop damage” value ([27]; 125 g ai/ha) was 100. The “SOY crop damage” value ([27]; 250 g ai/ha) was 100.

In the case of O=[N+]([O-])c1ccccc1Oc1cc(-c2nn3c(c2Cl)CCCC3)c(F)cc1Cl [Compound 6-19], the “RICE crop damage” value ([1]; 250 g ai/ha) is reported as 0, the “CORN crop damage” value ([2]; 250 g ai/ha) is reported as 0 and the “SOY crop damage” value ([3]; 250 g ai/ha) is reported as 50. For the same compound, the “CORN crop damage” value ([4]; 250 g ai/ha) was 3, the “ABUTH phytotoxicity rating (0-100 scale)” value ([6]; 250 g ai/ha) was 100 and the “IPOHE phytotoxicity rating (0-100 scale)” value ([7]; 250 g ai/ha) was 100. The “CASOB phytotoxicity rating (0-100 scale)” value [8, 29] was 75, the “SORHA phytotoxicity rating (0-100 scale)” value ([9]; 250 g ai/ha) was 50 and the “AMARE phytotoxicity rating (0-100 scale)” value [10, 29] was 100. The “ECHCG phytotoxicity rating (0-100 scale)” value ([11]; 250 g ai/ha) was 60, the “AMBEL phytotoxicity rating (0-100 scale)” value [12, 29] was 50 and the “DIGSA phytotoxicity rating (0-100 scale)” value ([13]; 250 g ai/ha) was 50. For the same compound, the “SETVI phytotoxicity rating (0-100 scale)” value [14, 29] was 65, the “CHEAL phytotoxicity rating (0-100 scale)” value [15, 29] was 98 and the “ABUTH phytotoxicity rating (0-100 scale)” value ([16]; 250 g ai/ha) was 65. The “IPOHE phytotoxicity rating (0-100 scale)” value ([17]; 250 g ai/ha) was 0, the “CASOB phytotoxicity rating (0-100 scale)” value ([18]; 250 g ai/ha) was 75 and the “SORHA phytotoxicity rating (0-100 scale)” value ([19]; 250 g ai/ha) was 65. The “AMARE phytotoxicity rating (0-100 scale)” value ([20]; 250 g ai/ha) was 100, the “ECHCG phytotoxicity rating (0-100 scale)” value ([21]; 250 g ai/ha) was 50 and the “AMBEL phytotoxicity rating (0-100 scale)” value ([22]; 250 g ai/ha) was 50. The “DIGSA phytotoxicity rating (0-100 scale)” value ([23]; 250 g ai/ha) was 90, the “SETVI phytotoxicity rating (0-100 scale)” value ([24]; 250 g ai/ha) was 95 and the “CHEAL phytotoxicity rating (0-100 scale)” value ([25]; 250 g ai/ha) was 100. The “RICE crop damage” value ([26]; 250 g ai/ha) was 35 and the “SOY crop damage” value ([27]; 250 g ai/ha) was 40.
